From PMC5608556, “Photo-affinity labelling and biochemical analyses identify the target of trypanocidal simplified natural product analogues” (PLoS Neglected Tropical Diseases, 2017)
Like-named read-outs stand apart in the source and are kept apart here.

Tests used:
[1] = tested on: cellular ATP production in PF T. brucei; test: ATP monitoring in live PF cells (proline as sole carbon source, bioluminescence); type: cell-based, Trypanosoma brucei; conditions: 2 h, normalised to no inhibitor control
Method: We first set out to determine if B-THP-T compounds affected cellular ATP levels. PF T. brucei were incubated in buffered PBS with/without proline as the sole carbon source and various inhibitors for 2 h. Cells were harvested and their ATP content was determined by bioluminescence assay. Two ETC inhibitors were used as positive control: malonate is a competitive inhibitor of mitochondrial complex II and prevents the […] of succinate to fumarate and entry of electrons to the ETC; and antimycin A (AA) is a mitochondrial complex III inhibitor, which prevents the transfer of electrons to cytochrome c and ubiquinone recycling. […] Compound 1 inhibited ATP production in a dose-response manner to similar levels (by 55 ± 6%), supporting the hypothesis from pull-down data that its target is involved in the ATP production pathway from proline.
Fig 4 B-THP-Ts decrease cellular ATP levels. PF T. brucei cells were incubated in buffered PBS with/without proline (as sole carbon source) and various inhibitors (concentrations indicated) incubated for 2 h, after which cells were harvested and cellular ATP levels were monitored by bioluminescence assay. Key: NS, no substrate; NI, no inhibitor control; Malonate (complex II inhibitor) AA, antimycin A (AA, complex III inhibitor). Background relative light units (RLU) were subtracted from measurements and % ATP production normalised to the no inhibitor control. Data were averaged from two independent experiments, each performed in duplicate (n = 4). Error bars show standard deviations. […]
Effects of compounds on proline metabolism were determined using a methodology adapted from Podolec et al. Briefly, glucose-free-conditioned PF T. brucei cells were washed into buffered PBS and incubated in 200 μl volumes with inhibitors for 10 min. […] Supernatants containing metabolic end-products and citrate standard were analysed to evaluate effects on proline metabolism (see below), while the ATP content of cells was determined as follows. […] ATP content was determined as above.

[2] = tested on: ATP production (oxidative phosphorylation) in digitonin-permeabilised PF T. brucei; test: ATP production assay in digitonin-permeabilised cells; type: cell-based, Trypanosoma brucei; conditions: for Effect on ATP production from succinate: succinate 2.5 mM as substrate
Source text: We next sought to identify the point at which ATP production was blocked using digitonin-permeabilised cells. Digitonin permeabilises the plasma membrane of trypanosomatids, but crucially, leaves the glycosomes and mitochondria intact and fully functional, allowing them to be probed with compartment-specific ATP-yielding substrates. Digitonin-permeabilised PF T. brucei were probed with succinate, which is readily transported across the PF T. brucei mitochondrial membrane by the dicarboxylic acid carrier and can yield only oxidative phosphorylation-derived ATP through the FoF1-ATP synthase (complex V).
Fig 5 Inhibition of ATP production in digitonin-permeabilsed cells. (A-C) Digitonin-permeabilised PF T. brucei were probed with substrates in the presence of inhibitors and resulting ATP production quantified by bioluminescence assay. See experimental section for details. Inhibitors were used at saturating concentrations to ensure that relevant enzyme activities were ablated. Key: NS, no substrate; NI, no inhibitor; SHAM, salicylhydroxamic acid (TAO inhibitor at 100 μM); Rotenone (complex I inhibitor at 100 μM); Malonate (complex II inhibitor at 5 mM); AA, antimycin A (complex III inhibitor at 200 μM); OA, oligomycin A (complex V inhibitor at 200 μM); DNP, 2,4-dinitrophenol (protonophore at 1 mM); Comp.1, compound 1 at 200 μM. Background relative light units (RLU) were subtracted from measurements and % ATP production normalised to the no inhibitor control. Data were averaged from three independent experiments, each performed in quadruplicate. Error bars show standard deviations. T-tests were performed against no inhibitor controls (black asterisks) and compound 1 (grey open circles) and significance values presented: p < 0.00005 (*** / °°°), p < 0.0005 (** / °°), p < 0.005 (* / °). (A) Succinate was used as a substrate to generate ATP solely through oxidative phosphorylation (OxPhos). Oxidative phosphorylation inhibitors malonate, AA, OA and DNP virtually eliminated all ATP production. […] (B) α-ketoglutarate yields 40% ATP through substrate-level phosphorylation (SubPhos) and 60% through oxidative phosphorylation. Malonate, AA, OA and DNP inhibit oxidative phosphorylation, but not substrate-level phosphorylation. […] (C) Gly-3P acts as an alternative entry site to the electron transport chain yielding ATP through oxidative phosphorylation and the glycosome (GlyPhos). Malonate has no effect, as it acts at a different entry point. AA, OA and DNP inhibit oxidative phosphorylation, but not glycosomal phosphorylation.
ATP production assays were carried out in duplicate, and three independent assays were conducted. Cells were digitonin-permeabilised as previously described. Briefly, cells were washed in PBS and permeabilised for 5 min at a density of 1x10^8 cells/mL in SoTE buffer (20 mM Tris.HCl (pH 7.5), 2 mM EDTA pH 7.5, 600 mM sorbitol) supplemented with 0.015% (w/v) digitonin. Permeabilised cells were pelleted at 5000 g for 3 min at 4°C and suspended to 8.4x10^7 cells/mL in ATP assay buffer (20 mM Tris.HCl (pH 7.4), 15 mM KH2PO4, 0.6 M sorbitol, 10 mM MgSO4, 2.5 mg/mL fatty acid-free BSA.
ATP production assays were carried out in 75 μl volumes in 96-well plates with a final PF T. brucei cell density of 6.7 x 10^7 cells/mL as previously reported. […] B-THP-Ts, antimycin A (AA) and oligomycin A (OA) were used at 200 μM, Dinitrophenol (DNP) at 1 mM, malonate at 5 mM, rotenone at 100 μM and salicylhydroxamic acid (SHAM) at 100 μM. 59.25 μL digitonin-permeabilised cells (prepared above) were added to 0.75 μl inhibitor dissolved in DMSO (or 0.75 μL DMSO without inhibitor for no inhibitor control) and incubated for 10 min to allow inhibitors to take effect. Substrate was added to 2.5 mM and incubated for 10 min. Reactions were started with the addition of ADP to 60 μM and incubated at RT for 30 min. […]

[3] = 30 min, compound 1, AA, OA 200 μM, DNP 1 mM, malonate 5 mM, rotenone, SHAM 100 μM
[4] = glycerol-3-phosphate as substrate, 30 min, compound 1, AA, OA 200 μM, DNP 1 mM

O=C(O)CC(=O)O [malonate]
Inhibition of cellular ATP production [1]: 62 ± 15% | Effect on ATP production from Gly-3P ([2]; glycerol-3-phosphate as substrate, 30 min, malonate 5 mM, rotenone, SHAM 100 μM): no effect | Effect on ATP production from succinate [2, 3]: completely eliminated all ATP production

CCCCCC[C@H]1C(=O)O[C@H](C)[C@H](NC(=O)c2cccc(NC=O)c2O)C(=O)O[C@@H](C)[C@@H]1OC(=O)CC(C)C [antimycin A]
Inhibition of cellular ATP production [1]: 71 ± 9% | Inhibition of ATP production from Gly-3P [2, 4]: 75 ± 14% | Effect on ATP production from succinate [2, 3]: almost abolished ATP production

CCCCCC[C@H]1CCC[C@@H](Cn2cc([C@@H]3CCC[C@H](CCCCO)O3)nn2)O1 [Compound 1]
Inhibition of cellular ATP production [1]: 55 ± 6% | IC50 ([2]; Trypanosoma brucei, 0.5 h, read-out: IC50 against oxidative phosphorylation (ATP production), Gly-3P as substrate, digitonin-permeabilised PF T. brucei, Gly-3P, 30 min incubation): 39.2 ± 4.6 µM | IC50 ([2]; Trypanosoma brucei, 0.5 h, read-out: IC50 against oxidative phosphorylation (ATP production), succinate as substrate, digitonin-permeabilised PF T. brucei, succinate, 30 min incubation): 57.3 ± 14.5 µM | Inhibition of ATP production from Gly-3P [2, 4]: 82 ± 16% | IC50 ([2]; read-out: IC50 against oxidative phosphorylation (ATP production), Gly-3P as substrate, digitonin-permeabilised PF T. brucei, Gly-3P, 30 min incubation): 39 ± 5 µM | IC50 ([2]; read-out: IC50 against oxidative phosphorylation (ATP production), succinate as substrate, digitonin-permeabilised PF T. brucei, succinate, 30 min incubation): 57 ± 15 µM | Effect on ATP production from succinate [2, 3]: decreased ATP production from succinate to similar levels | Inhibition of ATP production from α-ketoglutarate ([2]; α-ketoglutarate as substrate, 30 min, compound 1, AA, OA 200 μM, DNP 1 mM, malonate 5 mM): 67 ± 13%
